# Measured values from US20060198836A1, “Method of treating hit patients with argatroban” (Smithkline Beecham Corporation, priority 2003, published 2006).
# Like-named read-outs stand apart in the source and are kept apart here.
# Key:
# Assay type in all cases: in vivo, human
# [1] = tested on: patient with HIT with thrombosis
# Text: A person experienced pregnancy-induced hypertension and sudden weight gain during the third trimester of pregnancy. Premature labor led to the delivery of twins at 31 weeks gestation. After delivery, the patient remained hypertensive. On post-partum day 7, they awoke with chest pain and shortness of breath. They were lethargic with a blood pressure of 190/96 mm Hg and heart rate 135 beats per minute.
# On postpartum day 10, the patient was transferred to another hospital for left hemiparesis. A non-hemorrhagic right cerebral infarction was confirmed by computed tomography. During days 4 to 7 of heparin therapy, platelet counts fluctuated between 163×10^9/L and 99×10^9/L with no clear downward trend. A platelet count was not obtained on day 8. However, on day 9 of heparin therapy, the patient's right leg became ischemic and their platelet count decreased to 34×10^9/L. HIT was suspected and heparin was immediately discontinued. The patient was taken to the operating room and Fogerty balloon thrombectomy of the right superficial and profunda arteries removed a typical red, fleshy acute thrombus. The clinical diagnosis of HIT with thrombosis was confirmed by the detection of heparin/PF4 antibodies in the patient's day 9 serum (but not in their serum from day 3) using an in-vitro functional test, the serotonin release assay (SRA).
# An alternative anticoagulant was needed for further treatment of their pulmonary embolism and to prevent further thrombosis of the right femoral artery. The direct thrombin inhibitor Argatroban was initiated at 2 mcg/kg/min and titrated to achieve an activated partial thromboplastin time (aPTT) of 1.5 to 3.0 times the patient's baseline aPTT value.
# After 6 days of Argatroban monotherapy and recovery of the platelet count to >100×10^9/L, warfarin was initiated concomitantly. Warfarin was started at the expected daily dose of 5 mg. On the 4th day of concomitant therapy, Argatroban infusion was held for 4 hours (to eliminate the effects of Argatroban on the INR) and the INR was rechecked to assure a therapeutic INR on warfarin alone. The INR was 2.1, which is considered therapeutic for the underlying medical condition, so the Argatroban was discontinued.
# [2] = tested on: patient with HIT with thrombosis; assay: Example 3 patient case: Argatroban with transition to warfarin, avoiding warfarin-induced skin necrosis and venous limb gangrene
# Text: The following patient case is an example of an appropriate transition to warfarin, because Argatroban therapy is continued for at least 5 days and until the patient's platelet count has recovered to >100×10^9/L. In addition, concomitant therapy with Argatroban and warfarin overlaps for at least 4-5 days.
# A person presented to the hospital with an acute myocardial infarction, for which they received tissue plasminogen activator and heparin. Their platelet count was 190×10^9/L on admission. They underwent coronary artery bypass grafting several days later, and heparin was continued throughout the peri-operative period. Postoperatively, the patient experienced atrial fibrillation, and warfarin was initiated. Four days postoperatively, they developed pain and discoloration of the left breast and right leg. The platelet count was 60×10^9/L and the INR was 6.1. Unfortunately, the breast and leg lesions progressed rapidly and the patient ultimately required a mastectomy and below the knee amputation. Five weeks later, they were readmitted with upper extremity swelling. The platelet count was 126×10^9/L on readmission. Ultrasound confirmed axillary/subclavian and femoral venous thromboses, for which heparin therapy was re-initiated. The platelet count fell from 126×10^9/L to 26×10^9/L after 3 days of intravenous heparin, and the diagnosis of HIT with thrombosis was made. The patient's initial breast and leg lesions are examples of warfarin-induced skin necrosis and venous limb gangrene, respectively, which are possible clinical manifestations of HIT. The patient was started on Argatroban 2 mcg/kg/min and the dose was titrated to maintain aPTT values between 1.5 and 3 times their baseline aPTT. […] Argatroban was continued for 11 days. On day 6 of Argatroban therapy, warfarin was initiated at the estimated daily dose of 5 mg. At that time, the platelet count was 150×10^9/L. Concomitant therapy with Argatroban and warfarin was continued for […] in accordance with the recommended overlap of 4 to 5 days. On the 5th day of concomitant therapy, the Argatroban was held for 6 hours and the INR value reflecting warfarin therapy alone was checked. The INR was 2.9 and the Argatroban infusion was subsequently discontinued. • See e.g.: • Warkentin T E, Elavathil L J, Hayward C P M, et al. The pathogenesis of venous limb gangrene associated with heparin-induced thrombocytopenia. Ann Intern Med. 1997; 127:804-812. • Smythe M A, Warkentin T E, Stephens J L, et al. Venous limb gangrene during overlapping therapy with warfarin and a direct thrombin inhibitor for immune heparin-induced thrombocytopenia. Am J Hematol 2002; 71:50-52. • Srinivasan A F, Rice L, Bartholomew J R, et al. Warfarin-induced skin necrosis and venous limb gangrene in the setting of heparin-induced thrombocytopenia. […]
# patients with HIT = assay: Clinical trial of 304 patients with HIT with or without thrombosis who received argatroban; outcome by platelet count on day of argatroban cessation
# Text: In a clinical trial of 304 patients with HIT with or without thrombosis who received argatroban, 165 patients with active HIT had platelet count data available for the day of argatroban cessation. […] Therefore, we recommend these approaches for refining the existing method of therapy in patients with HIT receiving Argatroban.
# [3] = tested on: patient with HIT with thrombosis (HITT); assay: Example 1 patient case: Argatroban monotherapy in HIT with thrombosis, serial platelet counts
# Description: The patient is a person with a history of hypertension and hyperlipidemia who presented to the emergency department (ED) complaining of chest pain. […] The patient was admitted to the Coronary Care Unit and was treated with aspirin, intravenous nitroglycerin, metoprolol, and intravenous heparin. The platelet count on admission was 212×10^9/L. Serial cardiac enzymes and troponin concentrations were negative for a myocardial infarction. […] Coronary artery bypass grafting was performed 2 days later with an uneventful postoperative course. They were discharged from the hospital 7 days after the surgery in good condition and their platelet count was 136×10^9/L. One week later, the patient returned to the ED complaining of the acute onset of a cold and painful swollen left leg. Their medications included aspirin 325 mg daily, metoprolol 75 mg twice daily, NitroDur 20 mg daily and atorvastatin 20 mg daily. The physical examination was normal with the exception of mild hypertension and a cold, swollen left leg with blue discoloration from the knee down. In addition, the left popliteal pulse was faint and the left ankle pulse was non-palpable. […] Intravenous heparin was started and the patient was sent to the operating room for emergency surgery. A femoro-popliteal bypass was performed with a graft and there was an initial return of arterial blood flow to the lower leg. However, before the incision was closed, the graft re-occluded. The graft was opened and explored with an embolectomy catheter. A large amount of whitish granular material was found and subsequently removed from the distal end of the graft. Pulses returned to the lower leg and the incision was closed. By the time the closure was complete, the graft had again re-occluded. The finding of a platelet-rich “white clot” during this surgery along with thrombocytopenia alerted physicians to suspect HIT with thrombosis (HITT). Heparin was immediately discontinued and the DTI Argatroban was initiated (at 2 mcg/kg/min) that evening (day 1 of Argatroban). On the following day, the patient's left lower leg remained cold, blue and pulseless. They were transferred to another hospital where an amputation was performed. Argatroban was continued for 10 days. The platelet count began improving with the following serial platelet counts: 62×10^9/L on day 4, 78×10^9/L on day 6, 110×10^9/L on day 8 and 180×10^9/L on day 10. The patient was measured for a prosthetic leg and they underwent intense physical therapy for 6 months.
compound,measurement,setting,value
CC(=O)CC(c1ccccc1)c1c(O)c2ccccc2oc1=O (stereo not shown) [warfarin],INR on warfarin alone,"[1]; warfarin 5 mg daily, 4th day of concomitant therapy, Argatroban infusion held for 4 hours",2.1
same,INR,"[2]; four days postoperatively, warfarin initiated during heparin exposure, onset of skin necrosis and venous limb gangrene, platelet count 60×10^9/L",6.1
same,INR value reflecting warfarin therapy alone,"[2]; warfarin 5 mg daily, 5th day of concomitant therapy, Argatroban held for 6 hours",2.9
CC1CNc2c(cccc2S(=O)(=O)N[C@@H](CCCNC(=N)N)C(=O)N2CC[C@@H](C)C[C@@H]2C(=O)O)C1 (stereo partly shown) [Argatroban],"patients who experienced the composite endpoint of either death, amputation or new thrombosis",patients with HIT; 41 patients with platelet count <100×10^9/L on the day argatroban therapy was discontinued,61%
same,"patients who experienced the composite endpoint of either death, amputation or new thrombosis",patients with HIT; 124 patients with platelet count >100×10^9/L on the day argatroban therapy was discontinued,31.5%
same,platelet count,"[3]; day 4 of Argatroban, initiated at 2 mcg/kg/min, 41×10^9/L before",6.2e+10 L⁻¹
same,platelet count,[3]; day 6 of Argatroban,7.8e+10 L⁻¹
same,platelet count,[3]; day 8 of Argatroban,1.1e+11 L⁻¹
same,platelet count,[3]; day 10 of Argatroban,1.8e+11 L⁻¹
same,recovery of the platelet count,[1]; after 6 days of Argatroban monotherapy,> 1e+11 L⁻¹
same,platelet count,"[1]; hospital day 10, day 2 of Argatroban therapy, 34 × 10^9/L prior to initiation",5.5e+10 L⁻¹
same,platelet count,"[1]; hospital day 13, day 5 of Argatroban therapy",1.1e+11 L⁻¹
same,platelet count,"[1]; hospital day 14, day 6 of Argatroban therapy",1.6e+11 L⁻¹
same,platelet count,"[1]; hospital day 16, day 8 of Argatroban therapy (warfarin concomitant)",1.49e+11 L⁻¹
same,platelet count,"[1]; hospital day 18, day 10 of Argatroban therapy (warfarin concomitant)",2.1e+11 L⁻¹
same,platelet count,"[1]; hospital day 20, day 12 of Argatroban therapy",2.8e+11 L⁻¹
same,platelet count,"[2]; day 6 of Argatroban therapy, when warfarin was initiated, 26×10^9/L before Argatroban",1.5e+11 L⁻¹
heparin,platelet count,"[1]; human, in vivo",3.4e+10 L⁻¹
same,platelet count,"[2]; human, in vivo, iv",2.6e+10 L⁻¹
